Results as given in patent US20060287319A1, “Anti-viral compositions comprising heterocyclic substituted phenyl furans and related compounds” (priority 2005, published 2006).
Like-named read-outs stand apart in the source and are kept apart here.

How the values were obtained:
[1] = tested on: MT-2 cells
Method: Detection of in vitro cytotoxicity. The in vitro cytotoxicity of compounds for MT-2 cells was measured by a colorimetric method using XTT tetrazolium dye as previously described (21). Briefly, 100 μl of a compound at a graded concentration was added to equal volume of cells (5×10^5/ml) in a well of 96-well plates. After incubation at 37° C. for 4 days, XTT (1 mg/ml; […]; PolySciences, Inc., Warrington, Pa.) was added. Four hours later, the soluble intracellular formazan was quantitated colorimetrically at 450 nm with a reference at 570 nm.

[2] = tested on: HIV-1 IIIB; test: HIV-1-mediated cytopathic effect (CPE); type: cell-based; settings: read-out: EC50 (μM) (M ± SD) for inhibition of CPE
Source text: We thus purchased these compounds and tested their inhibitory activity on: 1) HIV-1 replication (p24 production); 2) HIV-1-mediated cytopathic effect (CPE); and 3) HIV-1 Env-induced cell-cell fusion; and their cytotoxicity to MT-2 cells.

[3] = tested on: HIV-1 IIIB; settings: for EC50: read-out: EC50 (μM) (M ± SD) for inhibition of p24, HIV-1 IIIB, MT-2 cells
Method: Assessment of anti-HIV-1 infectivity. The inhibitory activity of compounds on infection by laboratory-adapted HIV-1 strains was determined as previously described (34). […] For the time-of-addition assay, compounds were added at various time post-infection. Then the culture supernatants were removed and fresh media were added. On the fourth day post-infection, 100 μl of culture supernatants were collected from each well, mixed with equal volumes of 5% Triton X-100 and assayed for p24 antigen, which was quantitated by ELISA (23). Briefly, the wells of polystyrene plates (Immulon 1B, Dynex Technology, Chantilly, Va.) were coated with HIV immunoglobulin (HIVIG), which was prepared from plasma of HIV-seropositive donors with high neutralizing titers against HIV-1IIIB as previously described (36) in 0.085 M carbonate-bicarbonate buffer (pH 9.6) at 4° C. overnight, followed by washes with PBS-T buffer (0.01M PBS containing 0.05% Tween-20) and blocking with PBS containing 1% dry fat-free milk (Bio-Rad Inc., Hercules, Calif.). Virus lysates were added to the wells and incubated at 37° C. for 1 h. […] Reactions were terminated by addition of 1N H2SO4. […] Recombinant protein p24 (US Biological, Swampscott, Mass.) was included for establishing standard dose response curve.

[4] = tested on: HIV-1IIIB infected H9 cells (H9/HIV-1IIIB) and MT-2 cells; test: HIV-1 mediated cell-cell fusion (dye transfer assay); type: cell-based; settings: H9/HIV-1IIIB with MT-2 cells; read-out: EC50 (μM) (M ± SD) for inhibition of Cell fusion
Method: Inhibition of cell-cell fusion. A dye transfer assay was used for detection of HIV-1 mediated cell fusion as previously described (11,25,26). H9/HIV-1IIIB cells were labeled with a fluorescent reagent, Calcein-AM (Molecular Probes, Inc., Eugene, Oreg.) and then incubated with MT-2 cells (ratio=1:5) in 96-well plates at 37° C. for 2 hrs in the presence or absence of compounds tested. The fused and unfused Cacein-labeled HIV-1-infected cells were counted under an inverted fluorescence microscope (Zeiss, Germany) with an eyepiece micrometer disc. The percentage of inhibition of cell fusion and the IC50 values were calculated as previously described (11).

[5] = read-out: Cytotoxicity CC50 (μM) (M ± SD), MT-2 cells

| Structure (SMILES) | CC50 [1] [µM] | EC50 [2] [µM] | SI (CC50/EC50) [3] | EC50 [3] [µM] | EC50 [4] [µM] | CC50 [1, 5] [µM] | SI (CC50/EC50) ([3]; selectivity index) |
| --- | --- | --- | --- | --- | --- | --- | --- |
| CN1C(=O)/C(=C/c2ccc(-c3cccc(C(=O)O)c3)o2)SC1=S [NB151] | 125 ± 14.7 | 3.86 ± 0.58 | 187.17 | 0.667 ± 0.174 | 43.7 | – | – |
| Cc1ccc(C(=O)O)cc1-c1ccc(/C=C2\SC(=S)NC2=O)o1 [NB188] | 197 ± 13 | > 100 | – | > 100 | > 100 | – | – |
| O=C(O)c1cc(-c2ccc(/C=C3\SC(=O)N(c4ccc(Cl)cc4)C3=O)o2)ccc1Cl [NB140] | – | 63.4 ± 1.28 | – | 12.1 ± 2.73 | > 100 | 126 ± 19.2 | 10.41 |
| Cc1ccc(NC(=O)CN2C(=O)S/C(=C\c3ccc(-c4cccc(C(=O)O)c4)o3)C2=O)cc1 [NB194] | 207 ± 4.4 | > 100 | – | > 100 | > 100 | – | – |
| O=C(O)c1cccc(-c2ccc(/C=C3\SC(=S)N(C4CCCCC4)C3=O)o2)c1 [NB181] | – | 0.605 ± 0.194 | – | 0.218 ± 0.024 | > 100 | > 387 | >1777.78 |
| COC(=O)c1ccccc1N1C(=O)/C(=C/c2ccc(-c3ccc(Cl)c(C(=O)O)c3)o2)SC1=S [NB226] | > 320 | 3.46 ± 0.2 | – | 2.12 ± 0.38 | > 100 | – | – |
| O=C1NC(=S)S/C1=C\c1ccc(-c2cc(C(=O)O)ccc2Cl)o1 [NB190] | > 437 | > 100 | – | > 100 | > 100 | – | – |
| C#CCN1C(=O)S/C(=C\c2ccc(-c3ccc(Cl)c(C(=O)O)c3)o2)C1=O [NB200] | > 413 | > 100 | – | > 100 | > 100 | – | – |
| Cc1c(C(=O)O)cccc1-c1ccc(/C=C2\SC(=S)N(CC(=O)O)C2=O)o1 [NB228] | > 397 | > 100 | – | > 100 | > 100 | – | – |
| Cc1ccc(C(=O)O)cc1-c1ccc(/C=C2\SC(=O)N(c3ccccc3)C2=O)o1 [NB187] | – | > 100 | – | > 100 | > 100 | 363 ± 40.1 | – |
| C#CCN1C(=O)S/C(=C\c2ccc(-c3cccc(C(=O)O)c3)o2)C1=O [NB216] | 55.3 ± 10 | > 100 | – | > 100 | > 100 | – | – |
| C=CCN1C(=O)/C(=C/c2ccc(-c3cccc(C(=O)O)c3)o2)SC1=S [NB183] | 174 ± 16.2 | 0.753 ± 0.081 | 537.83 | 0.323 ± 0.081 | 16.8 ± 0.457 | – | – |
| CCC(C)N1C(=O)S/C(=C\c2ccc(-c3cc(C(=O)O)ccc3Cl)o2)C1=O (stereo not drawn) [NB232] | > 394 | > 100 | – | > 100 | > 100 | – | – |
| CCN1C(=O)S/C(=C\c2ccc(-c3cc(C(=O)O)ccc3Cl)o2)C1=O [NB236] | 113 ± 8.64 | > 100 | – | > 100 | > 100 | – | – |
| C=CCN1C(=O)/C(=C/c2ccc(-c3cccc(C(=O)O)c3C)o2)SC1=S [NB189] | > 414 | 2.28 ± 0.389 | >421.05 | 0.984 ± 0.155 | 4.33 ± 0.078 | – | – |
| Cc1cccc(NC(=O)CN2C(=O)S/C(=C\c3ccc(-c4cc(C(=O)O)ccc4Cl)o3)C2=O)c1 [NB198] | > 322 | > 100 | – | > 100 | > 100 | – | – |

| Structure (SMILES) | CC50 [1] [µM] | EC50 [2] [µM] | SI (CC50/EC50) [3] | EC50 [3] [µM] | EC50 [4] [µM] | CC50 [1, 5] [µM] | SI (CC50/EC50) ([3]; selectivity index) |
| --- | --- | --- | --- | --- | --- | --- | --- |
| O=C1NC(=S)S/C1=C\c1ccc(-c2cccc(C(=O)O)c2)o1 [NB184] | > 483 | > 100 | >28.93 | > 100 | > 100 | – | – |
| O=C(O)c1cc(-c2ccc(/C=C3\SC(=S)N(c4ccc([N+](=O)[O-])cc4)C3=O)o2)ccc1Cl [NB222] | – | > 100 | – | > 100 | > 100 | > 328 | – |
| C#CCN1C(=O)S/C(=C\c2ccc(-c3cc(C(=O)O)ccc3Cl)o2)C1=O [NB203] | > 413 | > 100 | – | > 100 | > 100 | – | – |
| O=C(O)c1cccc(-c2ccc(/C=C3\SC(=O)N(c4ccccc4)C3=O)o2)c1 [NB158] | – | > 100 | – | > 100 | > 100 | > 102 | – |
| O=C(O)c1cc(-c2ccc(/C=C3\SC(=S)N(Cc4ccc(F)cc4)C3=O)o2)ccc1Cl [NB208] | – | > 100 | – | 1.84 ± 0.654 | 6.668 ± 0.042 | 54.6 ± 15.3 | 29.77 |
| COc1ccccc1N1C(=O)/C(=C/c2ccc(-c3cccc(C(=O)O)c3)o2)SC1=S [NB148] | > 368 | – | >266.67 | 2.65 | 34.9 | – | – |
| COC(=O)CN1C(=O)S/C(=C\c2ccc(-c3cc(C(=O)O)ccc3Cl)o2)C1=O [NB234] | – | > 100 | – | > 100 | > 100 | > 379 | – |
| CC(C)CN1C(=O)S/C(=C\c2ccc(-c3ccc(Cl)c(C(=O)O)c3)o2)C1=O [NB193] | > 394 | > 100 | – | > 100 | > 100 | – | – |
| O=C(O)c1cc(-c2ccc(/C=C3\SC(=S)N(c4ccc(Cl)cc4)C3=O)o2)ccc1Cl [NB213] | – | 3.7 ± 1.01 | – | 0.514 ± 0.128 | 14.7 ± 0.599 | 93 ± 12.8 | 181.04 |
| CN1C(=O)S/C(=C\c2ccc(-c3cc(C(=O)O)ccc3Cl)o2)C1=O [NB186] | > 440 | > 100 | – | > 100 | > 100 | – | – |
| Cc1cccc(NC(=O)CN2C(=O)S/C(=C\c3ccc(-c4cccc(C(=O)O)c4C)o3)C2=O)c1 [NB209] | 113 ± 14.8 | > 100 | – | > 100 | > 100 | – | – |
| O=C(O)c1cc(-c2ccc(/C=C3\SC(=S)N(Cc4ccccc4)C3=O)o2)ccc1Cl [NB217] | – | 2.37 ± 0.657 | – | 0.767 ± 0.219 | 2.3 ± 0.131 | – | – |
| O=C(O)c1cc(-c2ccc(/C=C3\SC(=O)N(Cc4ccccc4)C3=O)o2)ccc1Cl [NB192] | – | > 100 | – | > 100 | > 100 | – | – |
| O=C(O)c1cccc(-c2ccc(/C=C3\SC(=S)N(Cc4ccco4)C3=O)o2)c1 [NB238] | – | – | >14.57 | – | – | – | – |
| C=CCN1C(=O)/C(=C/c2ccc(-c3cc(C(=O)O)cc(C(=O)O)c3)o2)SC1=S [NB225] | > 386 | > 100 | – | > 100 | – | – | – |
| O=C(O)c1cccc(-c2ccc(/C=C3\SC(=S)N(Cc4ccccc4)C3=O)o2)c1 [NB182] | – | 2.25 ± 1.14 | – | 0.83 ± 0.024 | 1.68 ± 0.142 | – | – |
